Data on one molecule can be found in US20180271858A1, “SOLUTION FOR ORAL ADMINISTRATION” (OTSUKA PHARMACEUTICAL CO., LTD., priority 2011, published 2018).

The data set is described as follows: solubility in water (statement in the background section). Type of data set: physicochemical. Particulars: compound (I) or a salt thereof.

Take `O=c1ccc2ccc(OCCCCN3CCN(c4cccc5sccc45)CC3)cc2[nH]1` [compound (I), 7-[4-(4-benzo[b]thiophen-4-yl-piperazin-1-yl)butoxy]-1H-quinolin-2-one]: the solubility in water result is given as “hardly soluble in water”.
